Data on 20 molecules can be found in patent US20230227484A1, “PYRIMIDINE COMPOUND AS AXL INHIBITOR” (NANJING CHIA TAI TIANQING PHARMACEUTICAL CO., LTD., priority 2020, published 2023).

One may read the IC50 as the concentration at which inhibition is half-maximal.

SMILES strings stand for the structures.

The target in this experiment is T1, AXL kinase (Homo sapiens, UniProt P30530).
T1 construct: purchased Carna 08-107
T1 sequence (P30530 473-894 limits assumed): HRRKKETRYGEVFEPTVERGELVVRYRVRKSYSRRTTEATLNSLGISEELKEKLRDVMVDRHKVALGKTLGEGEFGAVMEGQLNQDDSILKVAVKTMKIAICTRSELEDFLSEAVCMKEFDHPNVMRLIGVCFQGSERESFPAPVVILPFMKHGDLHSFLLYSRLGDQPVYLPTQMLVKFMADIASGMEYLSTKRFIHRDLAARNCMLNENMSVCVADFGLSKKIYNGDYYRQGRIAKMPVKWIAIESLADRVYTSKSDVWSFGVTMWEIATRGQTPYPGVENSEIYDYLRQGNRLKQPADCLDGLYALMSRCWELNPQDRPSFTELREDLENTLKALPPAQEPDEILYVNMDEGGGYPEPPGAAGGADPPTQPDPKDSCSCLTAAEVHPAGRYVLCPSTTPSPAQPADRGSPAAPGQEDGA
Kind of experiment: Inhibitory activity of compound against AXL kinase (HTRF KinEASE). In kind it is biochemical. The settings on record: AXL enzyme (Carna, 08-107), ATP 15 μM; "<" means below detection limit of the test. The method, then:
a) AXL enzyme (Carna, 08-107) configuration and addition: a 1×enzyme buffer (200 μL of Enzymatic buffer kinase 5×, 10 μL of 500 mM MgCl2, 10 μL of 100 mM DTT and 6.26 μL of 2500 nM SEB are added with […] of H2O, and prepared into 1 ml of 1× enzyme buffer) is used. AXL enzyme is diluted from 33.33 ng/uL to 0.027 ng/μL (1.67×, final conc.=0.016 ng/uL), a BioTek (MultiFlo FX) automatic liquid dispenser is used, and 6 μL of enzyme solution having a 1.67-fold final concentration is added respectively to compound wells and positive control wells; and 6 μL of 1×Enzymatic buffer is added to negative control wells.
b) Compound preparation and addition: the compounds and positive drugs prepared in the examples are diluted from 10 mM to 100 μM by DMSO, and titrated with a compound titrator (Tecan, D300e). The titrated solution is automatically sprayed by the titrator to each well to reach a required concentration, wherein the first concentration is 1 μM, and after ½ log dilution, a total of 8 concentrations are obtained. The resulting mixture is centrifuged at 2500 rpm for 30 s and incubated at room temperature for 15 min.
c) Preparation and addition of ATP and substrate: ATP (Sigma, A7699) is diluted with 1× enzyme buffer from 10 mM to 75 μM (5×), and the final concentration is 15 μM; the substrate TK Substrate 3-biotin (Cisbio, 61TK0BLC) is diluted with 1× enzyme buffer from 500 μM to 5 μM (5×), andthe final concentration is […]; ATP and the substrate are mixed in equal volume to obtain a mixed solution; the mixed solution is added to each well at 4 μL by using a BioTek automatic dispenser; centrifuged at 2500 rpm for 30 s, and reacted at 25° C. for 45 min.
d) Pirparation and addition of detection reagent: Streptavidin-XL665 (Cisbio, 610SAXLG) is diluted with HTRF KinEASE detection buffer (cisbio) from 16.67 μM to 250 nM (4×), and the final concentration is 62.5 nM; TK Antibody-Cryptate (Cisbio) is diluted with HTRF KinEASE detection buffer (cisbio) from 100× to 5×, and the final concentration is 1×; XL665 and Antibody are mixed in equal volume; the mixed solution is added to each well at 10 μL by using the BioTek automatic dispenser, centrifuged at 2500 rpm for 30 s, and reacted at 25° C. for 1 h. After the reaction is completed, the resulting product is detected by a multi-function plate reader HTR1p
GraphPad Prism 5 software log (inhibitor) vs. response-Variable slope is used to fit a dose-response curve to obtain the IC50 value of the compound to the inhibition of AXL kinase.
The calculation formula of the inhibition rate is as follows: […]
The molecule `CP(C)(=O)c1cc(N2CC3(COC3)C2)ccc1Nc1nc(Nc2ccc3c(c2)CC[C@@H](N2CCCC2)CC3)ncc1Cl` [Example 119, (S)-(2-((5-chloro-2-((7-(pyrrolidin-1-yl)-6,7,8,9-tetrahydro-5H-benzo[7]annulen-2-yl)amino)pyrimidin-4-yl)amino)-5-(2-oxa-6-azaspiro[3.3]heptan-6-yl)phenyl)dimethyl phosphine oxide] came in with an IC50 of 9.24 nM.
In the case of `Cc1ccc(P(C)(C)=O)c(Nc2nc(Nc3ccc4c(c3)CC[C@@H](N3CCCC3)CC4)ncc2Cl)c1` [Example 130, (S)-(2-((5-chloro-2-((7-(pyrrolidin-1-yl)-6,7,8,9-tetrahydro-5H-benzo[7]annulen-2-yl)amino)pyrimidin-4-yl)amino)-4-methylphenyl)dimethyl phosphine oxide] it was 12.3 nM.
Consider `[2H]c1ccc(Nc2nc(Nc3ccc4c(c3)CC[C@@H](N3CCCC3)CC4)ncc2Cl)c(P(C)(C)=O)c1` [Example 111, (S)-(2-((5-chloro-2-((7-(pyrrolidin-1-yl)-6,7,8,9-tetrahydro-5H-benzo[7]annulen-2-yl)amino)pyrimidin-4-yl)amino)phenyl-5-d)dimethyl phosphine oxide], for which the IC50 was determined as 1.81 nM.
Molecule `COc1cc(Nc2nc(Nc3ccc4c(c3)CC[C@@H](N3CCCC3)CC4)ncc2Cl)c(P(C)(C)=O)cc1F` [Example 131, (S)-(2-((5-chloro-2-((7-(pyrrolidin-1-yl)-6,7,8,9-tetrahydro-5H-benzo[7]annulen-2-yl)amino)pyrimidin-4-yl)amino)-5-fluoro-4-methoxylphenyl)dimethyl phosphine oxide] came in with an IC50 of 207 nM.
In turn, `CNC(=O)c1c(Nc2nc(Nc3ccc4c(c3)CC[C@@H](N3CCCC3)CC4)ncc2Cl)ccc2nccnc12` [Example 48, (S)-6-((5-chloro-2-((7-(pyrrolidin-1-yl)-6,7,8,9-tetrahydro-5H-benzo[7]annulen-2-yl)amino)pyrimidin-4-yl)amino)-N-methylquinoxaline-5-carboxamide] came in with an IC50 of 0.42 nM.
With `CNC(=O)c1c(Nc2nc(Nc3ccc4c(c3)CC[C@@H](N3CCCC3)CC4)ncc2Cl)ccnc1OC` [Example 44, (S)-4-((5-chloro-2-((7-(pyrrolidin-1-yl)-6,7,8,9-tetrahydro-5H-benzo[7]annulen-2-yl)amino)pyrimidin-4-yl)amino)-2-methoxyl-N-methylnicotinamide] the figure was 1.47 nM; with `CC(C)Oc1ccccc1Nc1nc(Nc2ccc3c(c2)CC[C@@H](N2CCCC2)CC3)ncc1Cl` [Example 8, (S)-5-chloro-4-(2-isopropoxyl)anilino-2-(7-(pyrrolidin-1-yl)-6,7,8,9-tetrahydro-5H-benzo[7]annulen-2-yl)pyrimidine], 8.28 nM; with `CN(C)S(=O)(=O)c1cccc(Nc2nc(Nc3ccc4c(c3)CC[C@@H](N3CCCC3)CC4)ncc2Cl)c1` [Example 2, (S)-3-((5-chloro-2-((7-(pyrrolidin-1-yl)-6,7,8,9-tetrahydro-5H-benzo[7]annulen-2-yl)amino)pyrimidin-4-yl)amino)-N,N-dimethyl benzenesulfonamide], 13.4 nM.
In the case of `Cc1cc(Cl)cc(Nc2nc(Nc3ccc4c(c3)CC[C@@H](N3CCCC3)CC4)ncc2Cl)c1P(C)(C)=O` [Example 117, (S)-(4-chloro-2-((5-chloro-2-((7-(pyrrolidin-1-yl)-6,7,8,9-tetrahydro-5H-benzoannulen-2-yl)amino)pyrimidin-4-yl)amino)-6-methylphenyl)dimethyl phosphine oxide], inhibition was half-maximal at 1.78 nM (IC50).
In turn, `CC(C)Oc1ccc(Nc2nc(Nc3ccc4c(c3)CC[C@@H](N3CCCC3)CC4)ncc2Cl)c(P(C)(C)=O)c1` [Example 114] gave a concentration for half-maximal inhibition (IC50) of 2.03 nM.
In the case of `COCCNC(=O)c1ccccc1Nc1nc(Nc2ccc3c(c2)CC[C@@H](N2CCCC2)CC3)ncc1Cl` [Example 38, (S)-2-((5-chloro-2-((7-(pyrrolidin-1-yl)-6,7,8,9-tetrahydro-5H-benzo[7]annulen-2-yl)amino)pyrimidin-4-yl)amino)-N-(2-methoxyethyl)benzamide] it was 6.24 nM.
The molecule `CP(C)(=O)c1c(Nc2nc(Nc3ccc4c(c3)CC[C@@H](N3CCCC3)CC4)ncc2Cl)ccc(F)c1Cl` [Example 132, (S)-(2-chloro-6-((5-chloro-2-((7-(pyrrolidin-1-yl)-6,7,8,9-tetrahydro-5H-benzo [7]annulen-2-yl)amino)pyrimidin-4-yl)amino)-3-fluorophenyl)dimethyl phosphine oxide] returned a half-maximal inhibitory concentration (IC50) of 2.36 nM.
With `COC(=O)c1ccncc1Nc1nc(Nc2ccc3c(c2)CC[C@@H](N2CCCC2)CC3)ncc1Cl` [Example 27], the IC50 came out at 19 nM.
In turn, `CP(C)(=O)c1cc(OC2CC2)ccc1Nc1nc(Nc2ccc3c(c2)CC[C@@H](N2CCCC2)CC3)ncc1Cl` [Example 128, (S)-(2-((5-chloro-2-((7-(pyrrolidin-1-yl)-6,7,8,9-tetrahydro-5H-benzo[7]annulen-2-yl)amino)pyrimidin-4-yl)amino)-5-cyclopropoxyphenyl)dimethyl phosphine oxide] registered an IC50 of 1.82 nM.
In the case of `COC(C)(C)c1ccc(Nc2nc(Nc3ccc4c(c3)CC[C@@H](N3CCCC3)CC4)ncc2Cl)c(P(C)(C)=O)c1` [Example 139, (S)-(2-((5-chloro-2-((7-(pyrrolidin-1-yl)-6,7,8,9-tetrahydro-5H-benzo[7]annulen-2-yl)amino)pyrimidin-4-yl)amino)-5-(2-methoxypropan-2-yl)phenyl)dimethyl phosphine oxide] it was 2.53 nM.
`CNC(=O)c1ncsc1Nc1nc(Nc2ccc3c(c2)CC[C@@H](N2CCCC2)CC3)ncc1Cl` [Example 26, (S)-5-((5-chloro-2-((7-(pyrrolidin-1-yl)-6,7,8,9-tetrahydro-5H-benzo[7]annulen-2-yl)amino)pyrimidin-4-yl)amino)-N-methylthiazole-4-carboxamide] showed an IC50 of 7.21 nM.
In the case of `CP(C)(=O)c1cc(C#N)ccc1Nc1nc(Nc2ccc3c(c2)CC[C@@H](N2CCCC2)CC3)ncc1Cl` [Example 54, (S)-4-((5-chloro-2-((7-(pyrrolidin-1-yl)-6,7,8,9-tetrahydro-5H-benzo[7]annulen-2-yl)amino)pyrimidin-4-yl)amino)-3-(dimethylphosphoryl)benzonitrile] it was 3.1 nM; in that of `COCc1ccc(Nc2nc(Nc3ccc4c(c3)CCC(N3CC5CC3C5)CC4)ncc2Cl)c(P(C)(C)=O)c1` (single isomer, unassigned) [Example 116 Isomer 116-2, (2-((2-((7-(2-azabicyclo[2.1.1]hexan-2-yl)-6,7,8,9-tetrahydro-5H-benzo[7]annulen-2-yl)amino)-5-chloropyrimidin-4-yl)amino)-5-(methoxymethyl)phenyl)dimethyl phosphine oxide], 96.8 nM; in that of `CNC(=O)c1cccnc1Nc1nc(Nc2ccc3c(c2)CC[C@@H](N2CCCC2)CC3)ncc1Cl` [Example 21, (S)-2-((5-chloro-2-((7-(pyrrolidin-1-yl)-6,7,8,9-tetrahydro-5H-benzo[7]annulen-2-yl)amino)pyrimidin-4-yl)amino)-N-methylnicotinamide], 6.53 nM.
With `CP(C)(=O)c1cc(Br)ccc1Nc1nc(Nc2ccc3c(c2)CC[C@@H](N2CCCC2)CC3)ncc1Cl` [Example 110, (S)-(5-bromo 2-((5-chloro-2-((7-(pyrrolidin-1-yl)-6,7,8,9-tetrahydro-5H-benzo[7]annulen-2-yl)amino)pyrimidin-4-yl)amino)phenyl)dimethyl phosphine oxide] the figure was 1.7 nM.
